In data set [1] the test system is PARP2 (Mus musculus). Put plainly: EMSA. The note with it: no divalent ions; EMSA: 2-3 nM nucleosomes, 5% PAGE in 0.2x TBE, 140 V, 4 C; divalent ions as given per row; binding buffer not in the material. For orientation: Mobility shift assays separate free from complexed probe on a gel.
Data set [2] deals with T1, PARP2-nucleosome complexes (Mus musculus, UniProt O88554).
T1 construct: Recombinant mouse full-length PARP2 was obtained in the baculovirus expression system; made in house; host or cells: PARP2: Sf9 insect cells (baculovirus), gift of Prof; O. Lavrik; nucleosomes assembled in house
In words: spFRET microscopy in solution of nucleosomes and PARP2-nucleosome complexes. The note with it: for effect of ions on the nucleosome structure: NP nucleosomes without PARP2, 5 mM ions; for effect of ions on the structure of nucleosomes in PARP2-nucleosome complexes: Zn2+ 0.3 mM, Ca2+ 5 mM or Mg2+ 5 mM. As to the method: In the study of nucleosome-PARP2 interactions, nucleosomes (1-2 nM) were incubated with PARP2 (12.5-200 nM) in buffer A (50 mM Tris-HCl pH 7.5; 40 mM NaCl; 0.5 mM β-mercaptoethanol (β-ME); 0.1% NP40) at 25 °C for 30 min. When indicated, buffer A was supplemented with 50 μM - 5 mM ZnCl2, 5 mM CaCl2 or 5 mM MgCl2. […] […] measurements in solution were performed as described previously. Each measured single nucleosome was characterized by FRET between Cy3 and Cy5 labels calculated as a proximity ratio (EPR):1 [drawing 1] Where I3 and I5 are fluorescence intensities of Cy3 and Cy5, respectively, and coefficients 0.19 and 0.81 provide correction for the spectral cross-talk between Cy3 and Cy5 detection channels. EPR is a FRET efficiency not corrected for quantum yields of labels and an instrumentation factor. Relative frequency distributions of nucleosomes by EPR values, i.e. EPR profiles, (2000-5000 nucleosomes per experiment; 3 independent experiments) were plotted and further analyzed as a superposition of several normal (Gaussian) distributions for nucleosomes or nucleosome-PARP2 complexes. Since nucleosomes tend to aggregate when PARP2 is added (especially at high concentrations), treatment of signals measured from nucleosomes and their complexes included mandatory rejection of signals from any aggregates that are clearly recognized due to their slow diffusion rate and/or abnormally high fluorescence intensity.

The target of data set [3] is T2, PARP2 (Mus musculus, UniProt O88554). Put plainly: Western blot analysis of NAD+-dependent PARylation by PARP2 in PARP2-nucleosome complexes. Set-up: Recombinant mouse full-length PARP2 was obtained in the baculovirus expression system; made in house; host or cells: PARP2: Sf9 insect cells (baculovirus), gift of Prof; O. Lavrik; nucleosomes assembled in house. It counts as biochemical. The note with it: for effect of EDTA on PARylation: EDTA 10 mM. On the procedure: Probes were subjected to electrophoresis in 4–12% bis-Tris gradient gel in the NuPAGE™ MES SDS Running Buffer at 130 V. […] The membrane was incubated for 60 min in the PBS-T solution supplemented with the 5% skimmed milk. Then the membrane was incubated with mouse monoclonal antibodies 10 H followed by incubation with the secondary anti-mouse antibodies conjugated with horseradish peroxidase (Bio-Rad, Hercules, CA, USA). The washing procedure was carried out after each step of incubation. Immunodetection was performed using the Super Signal West Pico Chemiluminescent Substrate (Thermo Fisher Scientific, Waltham, MA, USA) for 3 min. The Western blot experiments were performed in three independent repetitions.
A general note: Immunoblotting shows a protein as a band on a membrane.

The target of data set [4] is PARP2 (Mus musculus) (UniProt O88554). The note with it: cited from earlier work.
For data set [5] the target is unchanged. To be noted: cited from earlier work. The source holds these as a separate data set.
For data set [6], the target named is Nucleosome assembled on a fluorescently labelled 187-bp DNA template (603 positioning sequence) with histones of chicken donor chromatin (chicken). Put plainly: native gel or EMSA + other: single particle fluorescence intensity analysis in the gel; nucleosomes NP with PARP2 (50 nM) in buffer A with 0.3 mM Zn2+; native PAGE.
In data set [7] the target is T3, WGR domain of PARP2 (Homo sapiens, UniProt Q9UGN5).
T3 construct: WGR domain of PARP2 (residues 77–220) into pET-15b-TEV expression vector; 6xHis (pET-15b-TEV) (N, cleaved yes); made in house; host or cells: Escherichia coli Rosetta2 (DE3) pLysS
T3 sequence (Q9UGN5 77-220): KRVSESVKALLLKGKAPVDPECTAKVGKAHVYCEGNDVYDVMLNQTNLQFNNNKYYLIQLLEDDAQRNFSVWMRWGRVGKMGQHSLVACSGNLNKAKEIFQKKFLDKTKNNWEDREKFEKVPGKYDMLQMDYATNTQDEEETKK
In words: Circular dichroism spectroscopy of the WGR domain (BeStSel secondary structure analysis). Set-up: content of a-helix in the WGR domain / content of b-sheet in the WGR domain / content of turn in the WGR domain / content of random coil in the WGR domain: unit not given here. To be noted: for content of a-helix in the WGR domain / content of b-sheet in the WGR domain / content of random coil in the WGR domain / content of turn in the WGR domain: 5 mM ion, independent measurements. As to the method:
(§1) CD spectra of proteins were recorded within the 190-250 nm spectral range with 0.2 nm step using Jasco-810 spectrophotometer (Jasco, Japan) and the quartz […]® cuvette of 0.1 mm thickness (Hellma, Germany. Secondary structure analysis was performed using BeStSel webserver. To improve the reliability of the analysis, the content of canonical secondary structures of various types was predicted for 3-6 independent measurements, and the values were averaged. The statistical significance of the secondary structure difference was determined using the multiple t-test.
A general note: Circular dichroism is widely used to follow secondary structure.

Data set [8] addresses T3, WGR domain of PARP2. In words: Tryptophan fluorescence spectroscopy of the WGR domain titrated with divalent cations (one site binding fit). The note with it: for Kd: Trp fluorescence, one site binding fit, 10 mM HEPES pH 8.0, 150 mM NaCl, residual EDTA present, read-out: dissociation constant of the divalent cation-WGR domain complex; for effect of ions on intensity of tryptophan fluorescence of the WGR domain: WGR domain 5 µM. As to the method:
Fluorescence spectra of Trp residues were measured in the 300–450 nm spectral range at the 270 nm excitation wavelengths using the Cary Eclipse spectrofluorometer (Varian/Agilent, USA).
Fluorescence of WGR domain was measured at 0.5 or 5 µM in a buffer containing 10 mM HEPES (pH 8.0), 150 mM NaCl and 0.73 or 7.3 µM EDTA, respectively. Solutions were complemented with ZnCl2 (0.2–308 µM) or MgCl2 (15–5000 µM), or CaCl2 (8–5000 µM) dissolved in a buffer containing 10 mM HEPES (pH 8.0), 150 mM NaCl. Intensity of the measured spectra was corrected for the concomitant dilution of the WGR domain. Integral intensities (Ifl.) of fluorescence spectra were averaged over three independent measurements (mean ± SEM) and used to plot the corresponding Ifl. vs. ion concentration graphs. Data were fitted with the one site binding equation:2 [drawing 2]
Where C is the concentration of divalent cations, Kd is a dissociation constant of the complex, Im and Ifl0 are maximal and initial values of Ifl., respectively.

Data set [9] concerns the target T2, PARP2. In words: Circular dichroism spectroscopy of PARP2 (BeStSel secondary structure analysis). Set-up: Recombinant mouse full-length PARP2 was obtained in the baculovirus expression system; made in house; host or cells: Sf9 insect cells (baculovirus); gift of Prof; O. Lavrik. To be noted: 0.3 mM Zn2+, 0.7 mM Ca2+ or 0.7 mM Mg2+. On the procedure: as §1
In the next data set the target is DNA. To be noted: read-out: Kd of PARP2 complex with DNA, cited from earlier work.
The next data set concerns the target T4, NP nucleosomes (Mus musculus, UniProt O88554).
T4 construct: Recombinant mouse full-length PARP2 was obtained in the baculovirus expression system; made in house; host or cells: PARP2: Sf9 insect cells (baculovirus), gift of Prof; O. Lavrik; nucleosomes assembled in house
Put plainly: EMSA of PARP2-nucleosome complexes (non-denaturing PAGE, FRET-in-gel). Format: binding, chicken. On the procedure: Sample preparation for EMSA was the same as for spFRET microscopy, although a slightly higher concentration of nucleosomes (2–3 nM) was used. The PARP2-nucleosome complexes were subjected to 5% polyacrylamide gel in 0.2×TBE buffer. Electrophoresis was performed under native conditions at 140 V, + 4 °C for ∼1.5 h. The gels were scanned using Amersham Typhoon RGB imager (Cytiva, Sweden). Fluorescence was excited in the gel at the 532 nm wavelength and recorded in the 570–610 nm (Cy3 signal) and 650–700 nm (FRET signal of Cy5) spectral regions. The resulting images were obtained in green (Cy3 signal) and red (FRET signal of Cy5) colors and merged.

Another data set concerns the target nucleosome. The note with it: read-out: Kd of PARP2-nucleosome complex, cited from earlier work.

Where “and” joins values, the source holds several entries; their conditions need not be identical. Identical values can stand only once. Like-named read-outs stand apart in the source and are kept apart here.

With Np nucleosome (s603-42A, 187 bp DNA), in the data set with PARP2 (Mus musculus) [1], the K half is 40 nM.

Regarding `O=C(O)CN(CCN(CC(=O)O)CC(=O)O)CC(=O)O` [EDTA, ethylenediaminetetraacetic acid], in data set [2] (EDTA 10 mM, Zn2+ 0.15 mM, PARP2 50 nM), the “effect of EDTA on PARP2-nucleosome complexes preformed in the presence of Zn2+” value is “does not reverse the changes in the nucleosome structure”. For the same molecule, the results for the “effect of EDTA on PARylation” value on PARP2 [3] (Mg2+ 5 mM), at PARP2 [3] (Zn2+ 0.3 mM) and at PARP2 [3] (absence of divalent ions) were “fully reverses the effect of Mg^2+ ions”, “strongly enhances the efficiency of PARylation” and “does not affect PARylation”, respectively.

PARP2 (from UniProt O88554): the Kd in the data set with PARP2 (Mus musculus) [4] was 0.101 µM; with PARP2 (Mus musculus) [5], 0.152 µM.

“Recombinant mouse full-length PARP2 (poly(ADP-ribose)polymerase 2) (from UniProt O88554 1-559) (enzyme)”: the stoichiometry N (PARP2 per nucleosome) in data set [6] is 1 and 2.

`[Cl-].[Cl-].[Mg+2]` [Mg2+, MgCl2]: on WGR domain of PARP2 [7], the “effect of ions on the structure of the WGR domain (CD)” value is “only minimal changes”; the “content of a-helix in the WGR domain” value is 13.8 and 13.1 and 13.6; the “content of b-sheet in the WGR domain” value was 27.8 and 25.8 and 28.5; the “content of random coil in the WGR domain” value is 46 and 48.5 and 46.1. Further, at WGR domain of PARP2 [7], the “content of turn in the WGR domain” value was 12.3 and 12.6 and 11.7. The “effect of ions on the nucleosome structure” value in data set [2] is “minimally affect”. Further, the “effect of ions on the structure of nucleosomes in PARP2-nucleosome complexes” value in data set [2] (PARP2 50 nM) is “not changed”. Besides, on WGR domain of PARP2 [8], the Kd was found to be 180 ± 80 µM and the “effect of ions on intensity of tryptophan fluorescence of the WGR domain” value was “considerably lower than the effect of Zn^2+ ions”. In addition, the “effect of ions on efficiency of PARP2-mediated PARylation” value at PARP2 [3] (Mg2+ 5 mM or Zn2+ 0.3 mM, PARP2 100 nM, nucleosomes 3 nM, NAD+ 0-5 µM) is reported as “increase”. Also, the “effect of ions on the CD spectrum / conformation of PARP2” value at PARP2 [9] is reported as “similar”.

As to `[Ca+2].[Cl-].[Cl-]` [Ca2+, CaCl2], on WGR domain of PARP2 [7], the “effect of ions on the structure of the WGR domain (CD)” value is “only minimal changes”; the “content of a-helix in the WGR domain” value is 14.9 and 10.9 and 11.1; the “content of b-sheet in the WGR domain” value was 30.1 and 29.5 and 31.3; the “content of random coil in the WGR domain” value is 43.7 and 47.2 and 46.3. In addition, the “content of turn in the WGR domain” value on WGR domain of PARP2 [7] was 11.4 and 12.5 and 11.3. Besides, the “effect of ions on the nucleosome structure” value in [2] was “minimally affect”. Besides, the “effect of ions on the structure of nucleosomes in PARP2-nucleosome complexes” value in [2] (PARP2 50 nM) is on record as “not changed”. For the same molecule, at WGR domain of PARP2 [8], the Kd amounted to 29 ± 14 µM and the “effect of ions on intensity of tryptophan fluorescence of the WGR domain” value is given as “considerably lower than the effect of Zn^2+ ions”. For the same molecule, the “effect of ions on the CD spectrum / conformation of PARP2” value at PARP2 [9] was “similar”.

B1: PARP2: Recombinant mouse full-length PARP2 obtained in the baculovirus expression system using Sf9 insect cells (protein)
chain: MAPRRQRSGSGRRVLNEAKKVDNGNKATEDDSPPGKKMRTCQRKGPMAGGKDADRTKDNRDSVKTLLLKGKAPVDPECAAKLGKAHVYCEGDDVYDVMLNQTNLQFNNNKYYLIQLLEDDAQRNFSVWMRWGRVGKTGQHSLVTCSGDLNKAKEIFQKKFLDKTKNNWEDRENFEKVPGKYDMLQMDYAASTQDESKTKEEETLKPESQLDLRVQELLKLICNVQTMEEMMIEMKYDTKRAPLGKLTVAQIKAGYQSLKKIEDCIRAGQHGRALVEACNEFYTRIPHDFGLSIPPVIRTEKELSDKVKLLEALGDIEIALKLVKSERQGLEHPLDQHYRNLHCALRPLDHESNEFKVISQYLQSTHAPTHKDYTMTLLDVFEVEKEGEKEAFREDLPNRMLLWHGSRLSNWVGILSHGLRVAPPEAPITGYMFGKGIYFADMSSKSANYCFASRLKNTGLLLLSEVALGQCNELLEANPKAQGLLRGKHSTKGMGKMAPSPAHFITLNGSTVPLGPASDTGILNPEGYTLNYNEFIVYSPNQVRMRYLLKIQFNFLQLW
B1: the Kd is 0.011 µM on DNA (18 bp duplex oligonucleotides); 0.058 µM on DNA (147 bp DNA having a gap); 0.84 µM on DNA (147 bp intact DNA); 0.15 µM at nucleosome (ref 28); 0.076 µM at nucleosome (ref 59). Also, the “PARP2 concentration at which complexes with nucleosomes are formed” value with NP nucleosomes (absence of divalent ions) was at least 12.5 nM. Besides, the EC50 in the data set with NP nucleosomes (absence of divalent ions, read-out: PARP2 concentration at ~50% decrease in the number of free nucleosomes (50% of nucleosomes in complexes)) stood at 0.04 ± 0.01 µM. Moreover, the “PARP2 concentration above which aggregation prevents separation of complexes in the gel” value with NP nucleosomes (presence of 0.3 mM Zn2+) was “above 50 nM”.

(Values after publication PMC12209172, “Poly(ADP-ribose)polymerase 2 is zinc-dependent enzyme and nucleosome reorganizer” (Cellular and Molecular Life Sciences: CMLS, 2025).)
